Patent US20130085133A1, “ANTI-VIRAL TREATMENT AND ASSAY TO SCREENFOR ANTI-VIRAL AGENT” (Sourthern Research Institute Office of Commercialization …, priority 2010, published 2013)

Tests used:
[1] = system: respiratory syncytial virus (RSV) strain Long; assay: microbe, parasite or virus in culture; conditions: human respiratory syncytial virus, HEp-2, 144 h
Protocol: The assay measures RSV virus-induced CPE in HEp-2 cells using cell viability as the end point.
Two vials of RSV (strain Long) containing 1×10^7 pfu/mL was thawed using an Eppendorf thermomixer for 13 min at 15° C., with shaking at 350 rpm. […] The cells were incubated for 18-20 h at 37° C., 5% CO2, 90% relative humidity. The medium was aspirated and the cells washed with 10 mL PBS without Mg^2+ or Ca^2+. Cells were harvested from flasks using 0.25% trypsin-EDTA. The cells were resuspended in a freezing medium of 95% fetal calf serum and 5% DMSO to a final cell density of 2×10^6 cells/mL. One mL aliquots of this virus infected cell suspension were dispensed to cryovials and cells were rate frozen to −80° C. Frozen infected cells were then transferred to −150° C. for long term storage.
Test compounds were evaluated by measuring their antiviral activity, cell toxicity, and selectivity. Test compounds were serially diluted in a plate to plate matrix or “stacked plate” matrix. All 320 compounds in a source plate were diluted together resulting in a 10 point dose response dilution series. It was visualized as a serial dilution series proceeding vertically through a stack of plates with the high dose plate on top and the low dose plate on the bottom.
Cells were harvested and resuspended to 80,000 cells per ml in Complete DMEM/F12.
Cells were thawed in a room temperature water bath with gentle agitation. The tube was inverted 5-10. Cells were diluted to 80,000 cells per ml by adding the contents of the vial to 24 ml of cold (4° C.) media.
Twenty five ul of uninfected HEp-2 cells were plated in the cell control wells. Frozen infected cells were combined with uninfected HEp-2 cells at a 1:100 ratio. Twenty five ul of the cell mixture was added to the virus control and compound wells. All cell plating was conducted using a Matrix WellMate and cells were maintained at room temperature with stirring during the plating process. The assay plates were incubated for six days at 37° C., 5% CO2 and 90% relative humidity.
Following the six day incubation period, the assay plates were equilibrated to room temperature for 30 min and an equal volume (30 μL) of Cell Titer-Glo reagent (Promega Inc.) was added to each well using a WellMate (Matrix, Hudson, N.H.) and plates were incubated for an additional 10 min at room temperature. At the end of the incubation, luminescence was measured using a Perkin Elmer Envision™ multi-label reader (PerkinElmer, Wellesley, Mass.) with an integration time of 0.1 s.
Data was analyzed using ActivityBase software (IDBS, Inc, Guilford, UK). thirty two control wells containing cells only and twenty four wells containing cells and virus were included on each assay plate and used to calculate Z′ value for each plate and to normalize the data on a per plate basis. […] Eight ribavirin positive control wells were included on each plate for quality control purposes, but were not used in Z′ calculations. […] In the toxicity assay, results are described as percent viability and the calculation is the same.
An EC50 (for CPE inhibition) and IC50 (for cell viability) were calculated for each substance using the 4 parameter Levenburg-Marquardt algorithm with parameter A locked at 0 and parameter B locked at 100. Standard deviation, normalized chi2 and hill slope were used to evaluate the curves. Values were not extrapolated beyond the tested range of concentrations.

[2] = cytotoxicity assay (percent viability of HEp-2 cells, Cell Titer-Glo); conditions: human, HEp-2 cells

Structure (SMILES) | EC50 [1] | CC50 at 6 days [2]
O=S1(=O)N=C(Nc2ccc3c4c(cccc24)CC3)c2ccccc21 [AB00304418] | 10.7 µg/mL | > 25 µg/mL
COc1ccc(C(=O)N2CCC(C(=O)Nc3cccc(Br)c3)CC2)cc1 [AB00299547] | 18.1 µg/mL | > 25 µg/mL
N#CCCCCN1c2cccc3cccc(c23)S1(=O)=O [AB00373143] | 14.3 µg/mL | > 25 µg/mL
O=S(=O)(O)c1cc(/N=N/c2cc(S(=O)(=O)O)c3cccnc3c2O)ccc1CCc1ccc(/N=N/c2cc(S(=O)(=O)O)c3cccnc3c2S)cc1S(=O)(=O)O [AB00444131] | 18.8 µM | > 50 µM
C=CCNc1cc(N2CCN(C(=O)c3ccc(Cl)cc3)CC2)ccc1[N+](=O)[O-] [AB00315446] | 12 µg/mL | > 25 µg/mL
CCOc1ccc(NC(=O)CSC2=C(C#N)C(c3ccncc3)C(C(=O)Nc3ccccc3)=C(C)N2)cc1 (stereo not shown) [AB00292155] | 15.7 µg/mL | > 25 µg/mL
COC(=O)c1c(-c2ccc(C)c(C)c2)csc1NC(=O)CCCC(=O)O [AB00309859] | 6.84 µg/mL | > 25 µg/mL
COc1ccc(C(=O)N2CCC(C(=O)Nc3cccc(C(F)(F)F)c3)CC2)cc1 [AB00298665] | 12.1 µg/mL | > 25 µg/mL
O=C(c1ccc(O)cc1O)c1ccc(O)cc1O [AB00275918] | 20.5 µg/mL | > 25 µg/mL
Cc1nc(N)sc1-c1nnc(Nc2ccccc2)s1 [AB00358926] | 12.7 µg/mL | > 25 µg/mL
CCC(=O)Nc1ccc(C(=O)OCc2cccc(F)c2)cc1 [AB00363859] | 12.6 µg/mL | > 25 µg/mL
Cc1ccc(C(=O)Nc2ccc(OC(C)C)cc2)cc1C [AB00297482] | 14.1 µg/mL | > 25 µg/mL
CNc1cc(N2CCCC2)ccc1[N+](=O)[O-] [AB00322577] | 18.7 µg/mL | > 25 µg/mL
Cc1cc(C)cc(NC(=O)c2cccc(NC(=O)c3ccco3)c2)c1 [AB00293678] | 18.6 µg/mL | > 25 µg/mL
CCOC(=O)c1ccccc1NC(=O)c1cc(S(=O)(=O)N(CC)c2ccccc2)ccc1Cl [AB00718457] | 23.8 µM | > 50 µM
O=C(C1CCN(S(=O)(=O)c2ccccc2)CC1)N1CCc2ccccc2C1 [AB00298862] | 20.4 µg/mL | > 25 µg/mL
COc1ccc(NC(=O)CN2c3cccc4cccc(c34)S2(=O)=O)c(OC)c1 [AB00293237] | 10.3 µg/mL | > 25 µg/mL
C=CCNC(=O)COc1ccc(Br)cc1C [AB00299924] | 22.4 µg/mL | > 25 µg/mL
CC(C)(C)C1CCc2nc3ccccc3c(C(=O)OCC(=O)Nc3ccc(C#N)cc3)c2C1 (stereo not shown) [AB00721928] | 41.9 µM | > 50 µM
CCOC(=O)CCC(NC(=O)c1cnc(NCc2cnc3nc(N)nc(N)c3c2C)s1)C(=O)OCC (stereo not shown) [AB00375242] | 42 µM | > 50 µM
O=C(N1CCCC1)N1c2ccccc2CCc2ccccc21 [AB00276381] | 12.2 µg/mL | > 25 µg/mL
COc1ccc2cc(Br)ccc2c1CO [AB00309550] | 16.3 µg/mL | > 25 µg/mL
Fc1cccc(COc2ccc(C(=S)N3CCOCC3)cc2)c1 [AB00293926] | 10.8 µg/mL | > 25 µg/mL
CCOC(=O)C1=C(c2ccccc2)NC(=S)NC1c1ccccc1OCC(=O)Nc1ccccc1 (stereo not shown) [AB00355044] | 6.39 µg/mL | > 25 µg/mL
O=C1c2ccccc2C(=O)N1CCc1nc2ccccc2c(=O)n1-c1cc(Cl)ccc1Cl [AB00307079] | 14.3 µg/mL | > 25 µg/mL

Further lines, with some results ahead:

EC50 [1] | Structure (SMILES) | CC50 at 6 days [2]
12 µg/mL | O=C(Nc1ccc(Nc2ccccc2)cc1)c1ccccc1F [AB00282102] | > 25 µg/mL
24.5 µg/mL | COC(=O)c1c(-c2ccc(C)cc2)csc1NC(=O)c1ccccc1Br [AB00310224] | > 25 µg/mL
27.8 µM | O=C(CCc1ccccc1)Nc1sc2c(c1C(=O)O)CCC2 [AB00877405] | > 50 µM
10.6 µM | Cc1ccc2c(Cn3cnc4scc(-c5ccc(F)cc5)c4c3=O)cc(=O)oc2c1 [AB00796970] | > 50 µM
12.6 µg/mL | Cc1ccc2c(ccc3nc(C)ccc32)n1 [AB00278348] | > 25 µg/mL
13.6 µg/mL | O=C(Nc1ccc2c(c1)ncn2C1CCCCC1)c1cccs1 [AB00369934] | > 25 µg/mL
38.7 µM | CCOc1ccc(Nc2nc3cc(S(=O)(=O)N(CC)CC)ccc3o2)cc1 [AB00536652] | > 50 µM
21.9 µg/mL | COc1ccc(-c2nc3ccccc3s2)cc1O [AB00339206] | > 25 µg/mL
15.8 µg/mL | O=c1cnnc(N/N=C/c2ccccc2Br)[nH]1 [AB00283422] | > 25 µg/mL
24.3 µg/mL | Cc1cccc(NCc2cc(Cl)ccc2O)n1 [AB00317095] | > 25 µg/mL
19.5 µg/mL | CCOc1ccc(-c2nnc(Nc3ccc(OC)c(C(=O)NC)c3)c3ccccc23)cc1 [AB00317165] | > 25 µg/mL
21.4 µg/mL | CCOC(=O)c1ccc(NC(=O)NCCc2ccccc2OC)cc1 [AB00348268] | > 25 µg/mL
16.2 µM | C/C(N)=C(/C#N)C(=O)CSc1nnc2c(Cl)cc(C(F)(F)F)cn12 [AB00724801] | > 50 µM
17.5 µg/mL | Cc1ccccc1C(=O)Nc1sc2c(c1C(=O)N1CCN(Cc3ccccc3)CC1)CCCCC2 [AB00284323] | > 25 µg/mL
11.3 µM | O=c1c2c([nH]c3ccccc13)-c1ccccc1-n1c(nc3ccccc3c1=O)C2 [AB00700560] | > 50 µM
24.5 µM | CNc1ncnc2c1ncn2[C@@H]1C[C@H](CO)[C@H](O)[C@@H]1O [SRI-4711] | > 50 µM
10.9 µg/mL | Cn1cnnc1SCC(=O)N1c2ccccc2Sc2ccc(C(F)(F)F)cc21 [AB00139215] | > 25 µg/mL
19.5 µg/mL | Cc1cccc(C)c1NC(=O)c1cccc(C(=O)Nc2c(C)cccc2C)n1 [AB00313091] | > 25 µg/mL
6.07 µM | COc1cccc(Nc2nnc(SCC(=O)/C(C#N)=C(\C)N)s2)c1 [AB00767910] | > 50 µM
24.2 µg/mL | CCOc1ccccc1OCCOCCOc1cccc2cccnc12 [AB00289145] | > 25 µg/mL
10.4 µg/mL | COc1ccc(C(=O)NCCc2cccc(Cl)c2)c(OC)c1 [AB00310156] | > 25 µg/mL
12.3 µg/mL | O=C(Nc1ccc(F)c(Cl)c1)C1CCN(C(=O)c2ccc(Cl)cc2)CC1 [AB00299386] | > 25 µg/mL
11.6 µg/mL | CSc1ccc(Cl)c(C(=O)Nc2ccc(Cc3ccccn3)cc2)c1 [AB00369798] | > 25 µg/mL
12.3 µg/mL | O=C(c1ccc(Cl)cc1Cl)N1CCCN(C(=O)c2ccc(Cl)cc2Cl)CC1 [AB00309842] | > 25 µg/mL
13.5 µg/mL | CCC(Oc1ccc(-c2ccc(C)cc2)cc1)C(=O)OC (stereo not shown) [AB00298660] | > 25 µg/mL
19.3 µg/mL | CC(Oc1ccc(-c2ccccc2)cc1)C(=O)Nc1nnc(C2CCCO2)s1 (stereo not shown) [AB00365647] | > 25 µg/mL
12 µM | O=C(COc1ccc(Cl)c(Cl)c1)Nc1cccc(C(=O)NC2CC2)c1 [AB00784993] | > 50 µM
22.8 µg/mL | CCCCC(=O)Nc1cccc(NC(=O)c2ccccc2OC)c1 [AB00317410] | > 25 µg/mL
